Species: Rattus norvegicus
Test: DrugMatrix - Regimen: Daily Repeat
Assay type: toxicity, organism-based, Sprague-Dawley
Design: regimen Daily Repeat, gender Male, age 6-8 weeks
Settings: in vivo, sc, 0 mg/kg, route mini-PUMP - SUBCUTANEOUS, dose level Control, vehicle 100 % SALINE; for ABSOLUTE BASOPHIL / ABSOLUTE EOSINOPHIL / ABSOLUTE LYMPHOCYTE / ABSOLUTE MONOCYTE / ABSOLUTE SEGMENTED NEUTROPHIL / BASOPHIL / EOSINOPHIL / ERYTHROCYTE COUNT / HEMATOCRIT / HEMOGLOBIN / LEUKOCYTE COUNT / LYMPHOCYTE / MEAN CORPUSCULAR HEMOGLOBIN / MEAN CORPUSCULAR HEMOGLOBIN CONCENTRATION / MEAN CORPUSCULAR VOLUME / MONOCYTE / NEUTROPHIL / NUCLEATED RED BLOOD CELLS / PLATELET COUNT: tissue Blood; for ALANINE AMINOTRANSFERASE / ALBUMIN / ALKALINE PHOSPHATASE / ASPARTATE AMINOTRANSFERASE / BLOOD UREA NITROGEN / CARBON DIOXIDE / CHLORIDE / CHOLESTEROL / CREATININE / GLUCOSE / LACTATE DEHYDROGENASE / LIPASE / PHOSPHORUS / POTASSIUM / SODIUM / TOTAL BILIRUBIN / TOTAL PROTEIN / URIC ACID: tissue Plasma

C[C@]12CCC(=O)C=C1CC[C@@H]1[C@@H]2[C@@H](O)C[C@]2(C=O)[C@@H](C(=O)CO)CC[C@@H]12 [ALDOSTERONE]
ABSOLUTE BASOPHIL (72 h, time 3 day): 0 CELLS/uL | ABSOLUTE EOSINOPHIL (72 h, time 3 day): 77.17 CELLS/uL | ABSOLUTE LYMPHOCYTE (72 h, time 3 day): 14293.83 CELLS/uL | ABSOLUTE MONOCYTE (72 h, time 3 day): 354 CELLS/uL | ABSOLUTE SEGMENTED NEUTROPHIL (72 h, time 3 day): 1658.33 CELLS/uL | BASOPHIL (72 h, time 3 day): 0% | EOSINOPHIL (72 h, time 3 day): 0.5% | ERYTHROCYTE COUNT (72 h, time 3 day): 6.27 x10E6/uL | HEMATOCRIT (72 h, time 3 day): 36.95% | HEMOGLOBIN (72 h, time 3 day): 13.4 G/DL | LEUKOCYTE COUNT (72 h, time 3 day): 16.38 x10E3/uL | LYMPHOCYTE (72 h, time 3 day): 87.17% | MEAN CORPUSCULAR HEMOGLOBIN (72 h, time 3 day): 21.42 pg | MEAN CORPUSCULAR HEMOGLOBIN CONCENTRATION (72 h, time 3 day): 36.27 G/DL | MEAN CORPUSCULAR VOLUME (72 h, time 3 day): 59.03 fL | MONOCYTE (72 h, time 3 day): 2% | NEUTROPHIL (72 h, time 3 day): 10.33% | NUCLEATED RED BLOOD CELLS (72 h, time 3 day): 0 /100WBC | PLATELET COUNT (72 h, time 3 day): 904.67 x10E3/uL | ALANINE AMINOTRANSFERASE (72 h, time 3 day): 48.33 u/L | ALBUMIN (72 h, time 3 day): 3.82 G/DL | ALKALINE PHOSPHATASE (72 h, time 3 day): 282.33 u/L | ASPARTATE AMINOTRANSFERASE (72 h, time 3 day): 86.83 u/L | BLOOD UREA NITROGEN (72 h, time 3 day): 20.17 mg/dL | CARBON DIOXIDE (72 h, time 3 day): 34.67 mmol/L | CHLORIDE (72 h, time 3 day): 102 MEQ/L | CHOLESTEROL (72 h, time 3 day): 71.5 mg/dL | CREATININE (72 h, time 3 day): 0.2 mg/dL | GLUCOSE (72 h, time 3 day): 136.83 mg/dL | LACTATE DEHYDROGENASE (72 h, time 3 day): 159 u/L | LIPASE (72 h, time 3 day): 9 u/L | PHOSPHORUS (72 h, time 3 day): 10.12 mg/dL | POTASSIUM (72 h, time 3 day): 5.92 MEQ/L | SODIUM (72 h, time 3 day): 147.8 MEQ/L | TOTAL BILIRUBIN (72 h, time 3 day): 0.2 mg/dL | TOTAL PROTEIN (72 h, time 3 day): 6.05 G/DL | URIC ACID (72 h, time 3 day): 1.4 mg/dL | ABSOLUTE BASOPHIL (120 h, time 5 day): 0 CELLS/uL | ABSOLUTE EOSINOPHIL (120 h, time 5 day): 0 CELLS/uL | ABSOLUTE LYMPHOCYTE (120 h, time 5 day): 14257.33 CELLS/uL | ABSOLUTE MONOCYTE (120 h, time 5 day): 326 CELLS/uL | ABSOLUTE SEGMENTED NEUTROPHIL (120 h, time 5 day): 3216.67 CELLS/uL | BASOPHIL (120 h, time 5 day): 0% | EOSINOPHIL (120 h, time 5 day): 0% | ERYTHROCYTE COUNT (120 h, time 5 day): 6.11 x10E6/uL | HEMATOCRIT (120 h, time 5 day): 36.22% | HEMOGLOBIN (120 h, time 5 day): 13.18 G/DL | LEUKOCYTE COUNT (120 h, time 5 day): 17.8 x10E3/uL | LYMPHOCYTE (120 h, time 5 day): 80.5% | MEAN CORPUSCULAR HEMOGLOBIN (120 h, time 5 day): 21.62 pg | MEAN CORPUSCULAR HEMOGLOBIN CONCENTRATION (120 h, time 5 day): 36.42 G/DL | MEAN CORPUSCULAR VOLUME (120 h, time 5 day): 59.37 fL | MONOCYTE (120 h, time 5 day): 1.83% | NEUTROPHIL (120 h, time 5 day): 17.67% | NUCLEATED RED BLOOD CELLS (120 h, time 5 day): 0 /100WBC | PLATELET COUNT (120 h, time 5 day): 1311 x10E3/uL | ALANINE AMINOTRANSFERASE (120 h, time 5 day): 47 u/L | ALBUMIN (120 h, time 5 day): 3.83 G/DL | ALKALINE PHOSPHATASE (120 h, time 5 day): 260.33 u/L | ASPARTATE AMINOTRANSFERASE (120 h, time 5 day): 76.17 u/L | BLOOD UREA NITROGEN (120 h, time 5 day): 14.67 mg/dL | CARBON DIOXIDE (120 h, time 5 day): 31.33 mmol/L | CHLORIDE (120 h, time 5 day): 101.17 MEQ/L | CHOLESTEROL (120 h, time 5 day): 75 mg/dL | CREATININE (120 h, time 5 day): 0.16 mg/dL | GLUCOSE (120 h, time 5 day): 152.67 mg/dL | LACTATE DEHYDROGENASE (120 h, time 5 day): 147.33 u/L | LIPASE (120 h, time 5 day): 9.33 u/L | PHOSPHORUS (120 h, time 5 day): 10.97 mg/dL | POTASSIUM (120 h, time 5 day): 6 MEQ/L | SODIUM (120 h, time 5 day): 145.52 MEQ/L | TOTAL BILIRUBIN (120 h, time 5 day): 0.17 mg/dL | TOTAL PROTEIN (120 h, time 5 day): 5.83 G/DL | URIC ACID (120 h, time 5 day): 1.27 mg/dL | ABSOLUTE BASOPHIL ([…], time 14 day): 0 CELLS/uL | ABSOLUTE EOSINOPHIL ([…], time 14 day): 64.5 CELLS/uL | ABSOLUTE LYMPHOCYTE ([…], time 14 day): 12507.83 CELLS/uL | ABSOLUTE MONOCYTE ([…], time 14 day): 380.33 CELLS/uL | ABSOLUTE SEGMENTED NEUTROPHIL ([…], time 14 day): 2414 CELLS/uL | BASOPHIL ([…], time 14 day): 0% | EOSINOPHIL ([…], time 14 day): 0.5% | ERYTHROCYTE COUNT ([…], time 14 day): 6.1 x10E6/uL | HEMATOCRIT ([…], time 14 day): 35.4% | HEMOGLOBIN ([…], time 14 day): 12.88 G/DL | LEUKOCYTE COUNT ([…], time 14 day): 15.37 x10E3/uL | LYMPHOCYTE ([…], time 14 day): 80.83% | MEAN CORPUSCULAR HEMOGLOBIN ([…], time 14 day): 21.18 pg | MEAN CORPUSCULAR HEMOGLOBIN CONCENTRATION ([…], time 14 day): 36.43 G/DL | MEAN CORPUSCULAR VOLUME ([…], time 14 day): 58.17 fL | MONOCYTE ([…], time 14 day): 2.17% | NEUTROPHIL ([…], time 14 day): 16.5% | NUCLEATED RED BLOOD CELLS ([…], time 14 day): 0.17 /100WBC | PLATELET COUNT ([…], time 14 day): 1016 x10E3/uL | ALANINE AMINOTRANSFERASE ([…], time 14 day): 53.33 u/L | ALBUMIN ([…], time 14 day): 3.93 G/DL | ALKALINE PHOSPHATASE ([…], time 14 day): 319.83 u/L | ASPARTATE AMINOTRANSFERASE ([…], time 14 day): 84 u/L | BLOOD UREA NITROGEN ([…], time 14 day): 15.5 mg/dL | CARBON DIOXIDE ([…], time 14 day): 34 mmol/L | CHLORIDE ([…], time 14 day): 101.83 MEQ/L | CHOLESTEROL ([…], time 14 day): 57 mg/dL | CREATININE ([…], time 14 day): 0.21 mg/dL | GLUCOSE ([…], time 14 day): 182.33 mg/dL | LACTATE DEHYDROGENASE ([…], time 14 day): 104.67 u/L | LIPASE ([…], time 14 day): 9.17 u/L | PHOSPHORUS ([…], time 14 day): 11.12 mg/dL | POTASSIUM ([…], time 14 day): 5.81 MEQ/L | SODIUM ([…], time 14 day): 144.85 MEQ/L | TOTAL BILIRUBIN ([…], time 14 day): 0.18 mg/dL | TOTAL PROTEIN ([…], time 14 day): 5.92 G/DL | URIC ACID ([…], time 14 day): 1.38 mg/dL

— ChEMBL document CHEMBL3885881, “DrugMatrix”
